Values joined by “and” are separate entries in the source; they are usually repeats but may differ in a detail not shown here. Equal values may be shown once.
Test system: 855422-203-R-J1-PDC spheroids with HUVEC/MSC, viability
Experiment: Anticancer human tumor 855422-203-R-J1-PDC patient-derived bladder carcinoma cell line growth inhibition [PI3K]
Settings: for viability, T/C: stronger effect = lower value
Method in brief: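 High-throughput combination screen: PI3K inhibitors crossed with targeted small molecules on complex spheroids of tumor cells, HUVEC and MSCs at 37 degrees C, 5% CO2. Top concentration was at or near clinical Cmax (otherwise 10 microM), with half-log decrements.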

[1] = curve of first compound, second compound 0.00316 µM
[2] = curve of first compound, second compound 0.01 µM
[3] = curve of first compound, second compound 0.0316 µM
[4] = curve of first compound, second compound 0.1 µM
[5] = curve of first compound, second compound 0.316 µM
[6] = curve of first compound, second compound 1 µM
[7] = second compound 0.00316 µM, first compound 0.000316 µM
[8] = second compound 0.00316 µM, first compound 0.001 µM
[9] = second compound 0.00316 µM, first compound 0.00316 µM
[10] = second compound 0.00316 µM, first compound 0.01 µM
[11] = second compound 0.00316 µM, first compound 0.0316 µM
[12] = second compound 0.00316 µM, first compound 0.1 µM
[13] = second compound 0.01 µM, first compound 0.000316 µM
[14] = second compound 0.01 µM, first compound 0.001 µM
[15] = second compound 0.01 µM, first compound 0.00316 µM
[16] = second compound 0.01 µM, first compound 0.01 µM
[17] = second compound 0.01 µM, first compound 0.0316 µM
[18] = second compound 0.01 µM, first compound 0.1 µM
[19] = second compound 0.0316 µM, first compound 0.000316 µM
[20] = second compound 0.0316 µM, first compound 0.001 µM
[21] = second compound 0.0316 µM, first compound 0.00316 µM
[22] = second compound 0.0316 µM, first compound 0.01 µM
[23] = second compound 0.0316 µM, first compound 0.0316 µM
[24] = second compound 0.0316 µM, first compound 0.1 µM
[25] = second compound 0.1 µM, first compound 0.000316 µM
[26] = second compound 0.1 µM, first compound 0.001 µM
[27] = second compound 0.1 µM, first compound 0.00316 µM
[28] = second compound 0.1 µM, first compound 0.01 µM
[29] = second compound 0.1 µM, first compound 0.0316 µM
[30] = second compound 0.1 µM, first compound 0.1 µM
[31] = second compound 0.316 µM, first compound 0.000316 µM
[32] = second compound 0.316 µM, first compound 0.001 µM
[33] = second compound 0.316 µM, first compound 0.00316 µM
[34] = second compound 0.316 µM, first compound 0.01 µM
[35] = second compound 0.316 µM, first compound 0.0316 µM
[36] = second compound 0.316 µM, first compound 0.1 µM
[37] = second compound 1 µM, first compound 0.000316 µM
[38] = second compound 1 µM, first compound 0.001 µM
[39] = second compound 1 µM, first compound 0.00316 µM
[40] = second compound 1 µM, first compound 0.01 µM
[41] = second compound 1 µM, first compound 0.0316 µM
[42] = second compound 1 µM, first compound 0.1 µM
[43] = second compound 0.00316 µM, first compound 0.316 µM
[44] = second compound 0.00316 µM, first compound 1 µM
[45] = second compound 0.00316 µM, first compound 3.16 µM
[46] = second compound 0.00316 µM, first compound 10 µM
[47] = second compound 0.01 µM, first compound 0.316 µM
[48] = second compound 0.01 µM, first compound 1 µM
[49] = second compound 0.01 µM, first compound 3.16 µM
[50] = second compound 0.01 µM, first compound 10 µM
[51] = second compound 0.0316 µM, first compound 0.316 µM
[52] = second compound 0.0316 µM, first compound 1 µM
[53] = second compound 0.0316 µM, first compound 3.16 µM
[54] = second compound 0.0316 µM, first compound 10 µM
[55] = second compound 0.1 µM, first compound 0.316 µM
[56] = second compound 0.1 µM, first compound 1 µM
[57] = second compound 0.1 µM, first compound 3.16 µM
[58] = second compound 0.1 µM, first compound 10 µM
[59] = second compound 0.316 µM, first compound 0.316 µM
[60] = second compound 0.316 µM, first compound 1 µM
[61] = second compound 0.316 µM, first compound 3.16 µM
[62] = second compound 0.316 µM, first compound 10 µM
[63] = second compound 1 µM, first compound 0.316 µM
[64] = second compound 1 µM, first compound 1 µM
[65] = second compound 1 µM, first compound 3.16 µM
[66] = second compound 1 µM, first compound 10 µM
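Further: agents incubated with spheroids for one week before read-out.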
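Wherever viability, T/C is given: 100% = DMSO vehicle-treated control wells.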

CC(=O)c1c(C)c2cnc(Nc3ccc(N4CCNCC4)cn3)nc2n(C2CCCC2)c1=O + COc1c(OCCCN2CCOCC2)ccc2c3n(c(=NC(=O)c4cnc(N)nc4)nc12)CCN3
IC50 [1]: > 100 nM | IC50 [2]: > 100 nM | IC50 [3]: 18.9 nM | IC50 [4]: < 0.316 nM | IC50 [5]: < 0.316 nM | IC50 [6]: < 0.316 nM | viability, T/C [7]: 91.7% | viability, T/C [8]: 101% | viability, T/C [9]: 95.2% | viability, T/C [10]: 98.3% | viability, T/C [11]: 90.5% | viability, T/C [12]: 73.5% | viability, T/C [13]: 83.1% | viability, T/C [14]: 88.4% | viability, T/C [15]: 88.2% | viability, T/C [16]: 84.7% | viability, T/C [17]: 86.6% | viability, T/C [18]: 56.5% | viability, T/C [19]: 67.9% | viability, T/C [20]: 63.5% | viability, T/C [21]: 58.4% | viability, T/C [22]: 55.2% | viability, T/C [23]: 47.6% | viability, T/C [24]: 26.9% | viability, T/C [25]: 26.8% | viability, T/C [26]: 27.5% | viability, T/C [27]: 22.6% | viability, T/C [28]: 25.4% | viability, T/C [29]: 20% | viability, T/C [30]: 12.1% | viability, T/C [31]: 10.4% | viability, T/C [32]: 7.97% | viability, T/C [33]: 9.28% | viability, T/C [34]: 8.98% | viability, T/C [35]: 6.22% | viability, T/C [36]: 5.08% | viability, T/C [37]: 3.62% | viability, T/C [38]: 4.81% | viability, T/C [39]: 3.28% | viability, T/C [40]: 3.47% | viability, T/C [41]: 4.56% | viability, T/C [42]: 3.64%

CC(C)NCC(C(=O)N1CCN(c2ncnc3c2C(C)CC3O)CC1)c1ccc(Cl)cc1 (stereo not given)
viability, T/C (compound 0.0316 µM): 93.1% [middle of 4 runs] | viability, T/C (compound 0.1 µM): 82.9% [middle of 4 runs] | viability, T/C (compound 0.316 µM): 78.5% [middle of 4 runs] | viability, T/C (compound 1 µM): 51.7% [middle of 4 runs] | viability, T/C (compound 3.16 µM): 36.8% [middle of 4 runs] | viability, T/C (compound 10 µM): 19.9% (2×) and 18.6% and 19.6% | IC50 (curve of compound): 1.25 µM [middle of 4 runs]

CC(Cn1ccc(-c2ccc(C#N)c(Cl)c2)n1)NC(=O)c1cc(C(C)O)[nH]n1 (stereo not given) + COc1c(OCCCN2CCOCC2)ccc2c3n(c(=NC(=O)c4cnc(N)nc4)nc12)CCN3
IC50 [1]: > 10000 nM | IC50 [2]: > 10000 nM | IC50 [3]: > 10000 nM | IC50 [4]: < 31.6 nM | IC50 [5]: < 31.6 nM | IC50 [6]: < 31.6 nM | viability, T/C [11]: 110% | viability, T/C [12]: 90.4% | viability, T/C [43]: 99.9% | viability, T/C [44]: 80.3% | viability, T/C [45]: 108% | viability, T/C [46]: 86.8% | viability, T/C [17]: 91.4% | viability, T/C [18]: 83.7% | viability, T/C [47]: 87.4% | viability, T/C [48]: 103% | viability, T/C [49]: 86.6% | viability, T/C [50]: 72.8% | viability, T/C [23]: 60.4% | viability, T/C [24]: 64.4% | viability, T/C [51]: 59.8% | viability, T/C [52]: 68.7% | viability, T/C [53]: 75.3% | viability, T/C [54]: 58.6% | viability, T/C [29]: 26.6% | viability, T/C [30]: 25.5% | viability, T/C [55]: 27.3% | viability, T/C [56]: 30.1% | viability, T/C [57]: 27.9% | viability, T/C [58]: 25.3% | viability, T/C [35]: 7.87% | viability, T/C [36]: 8.84% | viability, T/C [59]: 7.77% | viability, T/C [60]: 9.07% | viability, T/C [61]: 10.8% | viability, T/C [62]: 7.91% | viability, T/C [41]: 5.17% | viability, T/C [42]: 4.25% | viability, T/C [63]: 3.21% | viability, T/C [64]: 3.76% | viability, T/C [65]: 4.49% | viability, T/C [66]: 3.05%

CC(=O)c1c(C)c2cnc(Nc3ccc(N4CCNCC4)cn3)nc2n(C2CCCC2)c1=O + CC(Nc1ccc2c(c1)OCCn1cc(N3C(=O)OCC3C(F)F)nc1-2)C(N)=O
IC50 [1]: > 100 nM | IC50 [2]: > 100 nM | IC50 [3]: > 100 nM | IC50 [4]: 75.5 nM | IC50 [5]: 10.6 nM | IC50 [6]: < 0.316 nM | viability, T/C [7]: 110% | viability, T/C [8]: 88.9% | viability, T/C [9]: 109% | viability, T/C [10]: 84.1% | viability, T/C [11]: 97.6% | viability, T/C [12]: 74.2% | viability, T/C [13]: 99% | viability, T/C [14]: 87% | viability, T/C [15]: 98.3% | viability, T/C [16]: 86% | viability, T/C [17]: 98% | viability, T/C [18]: 75.8% | viability, T/C [19]: 84.1% | viability, T/C [20]: 84% | viability, T/C [21]: 86.3% | viability, T/C [22]: 85.1% | viability, T/C [23]: 83.5% | viability, T/C [24]: 60.8% | viability, T/C [25]: 72.1% | viability, T/C [26]: 78.4% | viability, T/C [27]: 62.1% | viability, T/C [28]: 73.7% | viability, T/C [29]: 72% | viability, T/C [30]: 43.2% | viability, T/C [31]: 54.2% | viability, T/C [32]: 51.3% | viability, T/C [33]: 57.4% | viability, T/C [34]: 47.9% | viability, T/C [35]: 44.4% | viability, T/C [36]: 29.9% | viability, T/C [37]: 37% | viability, T/C [38]: 36% | viability, T/C [39]: 31.9% | viability, T/C [40]: 30.6% | viability, T/C [41]: 31.2% | viability, T/C [42]: 15.4%

C=CC(=O)N1CCN(c2nc(=O)n(-c3c(C)ccnc3C(C)C)c3nc(-c4c(O)cccc4F)c(F)cc23)C(C)C1 (stereo not given) + CC(Nc1ccc2c(c1)OCCn1cc(N3C(=O)OCC3C(F)F)nc1-2)C(N)=O
IC50 [1]: > 10000 nM | IC50 [2]: > 10000 nM | IC50 [3]: > 10000 nM | IC50 [4]: > 10000 nM | IC50 [5]: > 10000 nM | IC50 [6]: < 31.6 nM | viability, T/C [11]: 80.4% | viability, T/C [12]: 95.2% | viability, T/C [43]: 116% | viability, T/C [44]: 101% | viability, T/C [45]: 122% | viability, T/C [46]: 121% | viability, T/C [17]: 96.1% | viability, T/C [18]: 98.5% | viability, T/C [47]: 121% | viability, T/C [48]: 99.5% | viability, T/C [49]: 119% | viability, T/C [50]: 120% | viability, T/C [23]: 91.5% | viability, T/C [24]: 81.1% | viability, T/C [51]: 96.7% | viability, T/C [52]: 90.6% | viability, T/C [53]: 99.6% | viability, T/C [54]: 99.5% | viability, T/C [29]: 80.2% | viability, T/C [30]: 66.1% | viability, T/C [55]: 75.5% | viability, T/C [56]: 89% | viability, T/C [57]: 80.8% | viability, T/C [58]: 93.4% | viability, T/C [35]: 54.5% | viability, T/C [36]: 54.4% | viability, T/C [59]: 53.8% | viability, T/C [60]: 75% | viability, T/C [61]: 73.9% | viability, T/C [62]: 68.8% | viability, T/C [41]: 39% | viability, T/C [42]: 30.9% | viability, T/C [63]: 39.2% | viability, T/C [64]: 44% | viability, T/C [65]: 50.6% | viability, T/C [66]: 38.7%
